# Test results reported in ChEMBL document CHEMBL1142213, “Mechanism of antimalarial action of the synthetic trioxolane RBX11160 (OZ277)” (Antimicrob Agents Chemother, 2007).
# Calls of active or inactive are those of the source. The calls are words filed in the database; no cut-off is given here.
# How the values were obtained:
# [1] = Inhibition of Plasmodium falciparum ATP6 expressed in Xenopus laevis oocytes; assay type: cell-based; conditions: oocyte
# [2] = Inhibition of Plasmodium berghei SERCA
# Oryctolagus cuniculus [3] = organism: Oryctolagus cuniculus; experiment: Inhibition of rabbit muscle SERCA at 10 uM
# Oocyte [4] = experiment: Abrogation of Plasmodium falciparum ATP6 inhibition expressed in Xenopus laevis oocytes at 10 uM in presence of 100 uM desferioxamine; assay type: cell-based
# Oocyte [5] = experiment: Inhibition of Plasmodium falciparum ATP6 expressed in Xenopus laevis oocytes at 50 uM; assay type: cell-based
# Oryctolagus cuniculus [6] = organism: Oryctolagus cuniculus; experiment: Inhibition of rabbit muscle SERCA at 100 uM
# Oocyte [7] = experiment: Inhibition of Plasmodium falciparum HT expressed in Xenopus laevis oocytes assessed as D-[U-14C]glucose uptake at 50 uM; assay type: cell-based
# Plasmodium falciparum = experiment: Antimalarial activity against Plasmodium falciparum NF54 within 48 hrs; assay type: functional, organism-based; conditions: NF54, 48 h
Compound,Ki [1] [µM],Ki [2] [µM],inhibition (Oryctolagus cuniculus [3]) [%],Activity (Oocyte [4]),Activity (Oocyte [5]),inhibition (Oryctolagus cuniculus [6]) [%],Activity (Oocyte [7]),IC50 (Plasmodium falciparum) [µM]
C[C@@H]1CC[C@H]2[C@@H](C)C(=O)O[C@@H]3O[C@@]4(C)CC[C@@H]1[C@]32OO4 [ARTEMISININ],0.079,6,,,,,,
C/C=C(/C)C(=O)O[C@H]1C(C)=C2[C@H]([C@@H]1OC(=O)CCCCCCC)[C@@](C)(OC(C)=O)C[C@H](OC(=O)CCC)[C@@]1(O)[C@H]2OC(=O)[C@@]1(C)O,,,75,,,,,
CC(C)(N)CNC(=O)C[C@H]1CC[C@@]2(CC1)OOC1(O2)C2CC3CC(C2)CC1C3 (some centres undefined),7.7,,,inactive,Active,50,inactive,0.0016
